The text below walks through data of patent publication US8088433B2, “Mononuclearly filled microcapsules” (Symrise AG, priority 2001, dated 2012).

For data set [1] the following is noted: cited from earlier work; for logPo/w / logKo/w: n-octanol/water distribution coefficient; for Log Ko/w: components of the Model flavor, Table 9; for logKo/w: log10[co/cw], grouping of flavor substances by difficulty of encapsulation.
Data set [2] can be described thus: flavor retention of Model-flavor components in alginate capsules, drying with silicon dioxide vs fluidized bed drying. Type of data set: physicochemical. To be noted: for Convective Drying: % Retention: 200 g wet capsules dried in fluidized bed dryer at 30° C., 100 m^3 per hour air flow, shell water content 62%; for Drying "water adsorbing" Substances: % Retention: 200 g wet capsules mixed 10 minutes with 100 g silicon dioxide, shell water content 45%.

Data set [3] in a line: flavor retention of Model-flavor components in alginate capsules, short continuous vs long batch gelling (ether extraction, HRGC/MS). Type of data set: physicochemical. The following applies: wet alginate capsules, 5% calcium chloride, relative to Model-flavor solution theoretically encapsulated; for Flavor Retention, Short Gel Time (continuous): dwell time 1 minute; for Flavor Retention, Long Gel Time (Batch): dwell time 2 hours. On the procedure: 50 g sodium alginate were dissolved in 195 g demineralized water using a high speed kneading mixer of the type Ultra-Turrax. 250 g Model-flavor were dissolved in 750 g neutral oil. The Model flavor was comprised of flavor components, which cover a large spectrum of water/oil solubility as indicated by logKo/w-values, see the following Table 9.
The two solutions (alginate, flavor) were conveyed to a vibrating two-stream nozzle head with an inner diameter of 150 μm and an outer diameter of 500 μm. The flow rates were adjusted for the flavor solution to 500 g per hour and for the shell solution to 1000 g per hour, the vibration frequency was adjusted to 200 Hz.
For the preferred short continuous gelling process the formed discrete droplets fell into a pipe reactor, which was filled with 5% calcium chloride, and were so transported, that the dwell time was 1 minute.
The results of the 1 minute capsule production (corresponding to 8.3 g encapsulated flavor solution) were then dissolved in 200 ml 1% aqueous […] solution. The mixture was then extracted for 4 hours in a perforator with diethyl ether. The diethyl ether extract was analyzed using HRGC/MS. The results were evaluated based on the surface of the GC/MS peaks for the components per gram of encapsulated aroma solution.
For the batch gelled process the formed discrete droplets fell into a 5% calcium chloride containing reactor with a dwell time of 2 hours. […] The same analytical protocol was carried out as for the short gel time process.
10 g Model-flavor solution were dispersed in 200 ml 1% aqueous sodium citrate solution. The mixture was extracted in a perforator for 4 hours with diethyl ether and evaluated as described above.
The flavor retention for the respective flavor components during the short continuous gelling process and the long gel batch process were calculated on the basis of the amount of the Model-flavor solution which originally flowed through the nozzle system and theoretically was encapsulated, the results are presented in Table 10.

As for `CC=O` [Acetaldehyde], in data set [1], the logPo/w is −0.16.

As for `CCCCCCCC(=O)OCC` [Ethylcaprylate], in data set [2], the “Convective Drying: % Retention” value is given as 65% and the “Drying "water adsorbing" Substances: % Retention” value was 0%. Besides, the “Log Ko/w” value in data set [1] is 3.9. Besides, in data set [3], the “Flavor Retention, Short Gel Time (continuous)” value (“Flavor Retention … (continuous)” below) was 90% and the “Flavor Retention, Long Gel Time (Batch)” value was found to be 90%.

Turning to `O=Cc1ccccc1` [benzaldehyde], in data set [2], the “Convective Drying: % Retention” value was 52% and the “Drying "water adsorbing" Substances: % Retention” value worked out at 80%. In data set [3], the “Flavor Retention … (continuous)” value is listed as 82% and the “Flavor Retention, Long Gel Time (Batch)” value is recorded as 11%.

With `C=C1CCC2CC1C2(C)C` (stereo not drawn) [beta-pinene], the logKo/w in data set [1] is given as 4.37.

On to `C=C(C)C1CC=C(C)C(=O)C1` (stereo not shown) [carvone], for which the logKo/w in data set [1] was 2.23.

As to `CC(=O)C(C)=O` [diacetyl (butanedione), butanedione], in data set [1], the logKo/w was 1.33.

Regarding `CCCC(=O)OCC` [ethyl butyrate], in data set [1], the logKo/w is 1.77 and the logPo/w is given as 1.73.

As to `CCOC(=O)C(C)O` (stereo not shown) [ethyl lactate], in data set [1], the logKo/w is listed as 0.88.

As to `CCOC(=O)CC` [ethyl propionate], in data set [2], the “Convective Drying: % Retention” value is listed as 4% and the “Drying "water adsorbing" Substances: % Retention” value was 50%. Further, in data set [1], the “Log Ko/w” value is recorded as 1.24 and the logKo/w is 1.24. In data set [3], the “Flavor Retention … (continuous)” value turned out to be 61% and the “Flavor Retention, Long Gel Time (Batch)” value stood at 0%.

As to `CCCCCC(=O)OCC` [ethyl-caproate], in data set [1], the logKo/w is 2.83.

With `CCOC(C)=O` [ethylacetate], in data set [1], the logKo/w was 0.75.

Regarding `CCCCCCC1CCC(=O)O1` (stereo not shown) [gamma-decalactone], the logKo/w in data set [1] was 2.42.

On to `CC(=O)OCCC(C)C` [isoamyl acetate], for which, in data set [2], the “Convective Drying: % Retention” value is 60% and the “Drying "water adsorbing" Substances: % Retention” value amounted to 95%. In data set [1], the “Log Ko/w” value was 2.12 and the logPo/w is listed as 2.12. In addition, in data set [3], the “Flavor Retention … (continuous)” value is 80% and the “Flavor Retention, Long Gel Time (Batch)” value is 18.5%.

Regarding `CC(C)CCO` [isoamyl alcohol], in data set [1], the logKo/w is 1.28 and the logPo/w is 1.22.

In the case of `C=CC(C)(O)CCC=C(C)C` (stereo not shown) [linalool], the logKo/w in data set [1] is 3.28.
